Ends that are not written are not given here.
System: cells of rat pituitary glands
Assay: in vitro assay of growth hormone release from cultured rat pituitary cells, side-by-side with the hpGRF(1-40)-OH standard
Type: cell-based
Conditions: potency for GH release relative to hGRF(1-40)-OH standard = 1.0; equimolar concentrations; rat pituitary cell cultures; incubation 3 to 4 hours; ir GH by radioimmunoassay; limits in brackets
Experimental: To determine the relative effectiveness of certain representative synthetic peptides to promote the release of growth hormone, in vitro assays are carried out using synthetic hpGRF(1-40)-OH as a standard in side-by-side comparison with equimolar concentrations of the representative analogs which have been synthesized. Cultures are used which include cells of rat pituitary glands removed some three to five days previously. Such cultures are considered optimal for the secretion of growth hormone and are used for the comparative testing, in the general manner described in Vale et al. Endocrinology, 91, 562-572 (1972) and as more particularly described in Vale et al. Endocrinology, 112, 1553-1555 (1983). Incubation with the substance to be tested is carried out for 3 to 4 hours, and aliquots of the culture medium are removed and processed to measure their contents in immunoreactive GH(ir GH) by a well-characterized radioimmunoassay.

Row | Substance | In Vitro Potencies
1 | [N^a MeTyr^1, Ala^15, CMA^19, Nle^27, Asn^28 ]-hGRF(1-29)-NH2 | 7.07 (3.8-13.6)
2 | [N^a MeTyr^1, Ala^15, CML^17, Nle^27, Asn^28 ]-hGRF(1-29)-NH2 | 5.41 (3.5-8.3)
3 | [N^a MeTyr^1, Ala^15, CML^22, Nle^27, Asn^28 ]-hGRF(1-29)-NH2 | 7.18 (4.1-12.7)
4 | [N^a MeTyr^1, Ala^15, CML^23, Nle^27, Asn^28 ]-hGRF(1-29)-NH2 | 1.96 (1.1-3.3)
5 | [N^a MeTyr^1, Ala^15, CML^26, Nle^27, Asn^28 ]-hGRF(1-29)-NH2 | 6.44 (4.0-10.3)
6 | [N^a MeTyr^1, CMA^13, Ala^15, Nle^27, Asn^28 ]-hGRF(I-29)-NH2 | 2.24 (1.4-3.4)
7 | [N^a MeTyr^1, CML^5, Ala^15, Nle^27, Asn^28 ]-hGRF(1-29)-NH2 | 3.59 (2.3-5.5)
8 | hGRF(1-40)--OH: synthetic human pancreatic/hypothalamic GH releasing factor (1-40) free acid, used as the standard in the in vitro and in vivo tests (YADAIFTNSYRKVLGQLSARKLLQDIMSRQQGESNQERGA-OH; UniProt P01286 32-71, looked up, fragment) [reference compound] | 1.0
